Here are results for two compounds from US20010049373A1, “Materials and methods for killing nematodes and nematode eggs” (priority 2000, published 2001).

For assay [1], the system named is gastrointestinal nematodes (trichostrongyle, Strongyloides, Trichuris, Nematodirus eggs). Put plainly: Sheep Test II: fecal egg per gram (EPG) counts. To be noted: for % Change, Strongyles EPG-5 day vs EPG-pre, Total/Mean / Strongyles EPG-5 day (22-May), Total/Mean / % Change, Strongyles EPG-7 day vs EPG-pre, Total/Mean / Strongyles EPG-7 day (24-May), Total/Mean: group mean; for % Change, Strongyles EPG-5 day vs EPG-pre, Total/Mean / Strongyles EPG-5 day (22-May), Total/Mean / Strongyles EPG-5 day (22-May): 5 days after treatment; for % Change, Strongyles EPG-7 day vs EPG-pre, Total/Mean / Strongyles EPG-7 day (24-May), Total/Mean / % Change, Strongyles EPG-7 day vs EPG-pre / Strongyles EPG-7 day (24-May): 7 days after treatment; for Strongyles EPG-5 day (22-May) / % Change, Strongyles EPG-7 day vs EPG-pre / Strongyles EPG-7 day (24-May): individual sheep. The class given is in vivo. How it is done:
Sheep naturally infected with a variety of gastrointestinal nematodes are purchased from local sources and are transported to the test site. The animals are housed in a manner to preclude further infection by nematode larvae. The animals are evaluated for the presence of adequate nematode burdens by performing a standard fecal egg per gram (EPG) count. Eggs are differentiated into the following groups: trichostrongyle (strongyle), Strongyloides, Trichuris, or Nematodiris. Only sheep judged by the study parasitologist to have adequate nematode infections are retained as test subjects.
The sheep are fed good quality hay (no concentrated rations) and water ad libitum. Following a five day acclimation period, the sheep are randomly assigned by EPG count into the following treatment groups: Groups 1-9, various anthelmintic compounds of the present invention (test compound) dissolved in DMSO: Group 10, Positive Control (commercially available ivermectin for sheep); Group 11, non-treated Negative control (DMSO only). The first replicate of 1 I animals is randomly assigned to groups 1-1; the second replicate of 11 animals is randomly assigned to groups 1-11; and the third replicate of 11 animals is randomly assigned to groups 1-1. Thus 11 groups of 3 animals each are created.
The randomization is performed on fecal samples collected 24-48 hours prior to scheduled treatment. The EPG counts are performed according to Zimmerman Research SOP # NMEPG.99.01.
The placebo (DMSO), the commercially available drug, and the test anthelmintic compounds are administered in a 3 ml volume of DMSO by subcutaneous injection using a sterile syringe fitted with a sterile needle. The site of injection is clipped and swabbed with alcohol prior to injection. The animal is adequately immobilized for injection of the placebo, commercially available drug, or experimental compound.
Following treatment, the animals are observed at hourly intervals for the first 8 hours, then daily until necropsy. They are housed in a manner to prevent further nematode infections.
On the fifth day following treatment, fecal samples are obtained from each animal, properly labeled and used for EPG counts.
Seven days following treatment, all the sheep are weighed and humanely slaughtered in accordance with the Guide for the Care and Use of Laboratory Animals (DHEW Publication No. 86-23). Necropsy procedures are according to Zimmerman Research SOP # NCRGIH.00.01, Necropsy for Helminth Recovery, specifically for gastrointestinal nematodes. Fecal samples are taken for EPG counts during the sample collection process on this day.

Assay [2] relates to gastrointestinal nematodes. Kind of assay: Sheep Test II: nematode recovery at necropsy, controlled test efficacy. The class given is in vivo. The settings on record: for Mean Ct., Abomasum Haemonchus / Mean Ct., Abomasum Ostertagia / Mean Ct., Large Intest. Trichuris / Mean Ct., Small Intest. Nematodirus / Mean Ct., Small Intestine Trichostrongylus: group mean; for Mean Ct., Abomasum Haemonchus / Mean Ct., Abomasum Ostertagia / Mean Ct., Large Intest. Trichuris / Mean Ct., Small Intest. Nematodirus / Mean Ct., Small Intestine Trichostrongylus / Worm Counts, Abomasum Haemonchus / Worm Counts, Abomasum ostertagia / Worm Counts, Large Intest. Trichuris / Worm Counts, Small Intest. Nematodirus / Worm Counts, Small Intestine Trichostrongylus: necropsy seven days following treatment; for Worm Counts, Abomasum Haemonchus / Worm Counts, Abomasum ostertagia / Worm Counts, Large Intest. Trichuris / Worm Counts, Small Intest. Nematodirus / Worm Counts, Small Intestine Trichostrongylus: individual sheep. As to the method: Sheep naturally infected with a variety of gastrointestinal nematodes are purchased from local sources and are transported to the test site. The animals are housed in a manner to preclude further infection by nematode larvae. The animals are evaluated for the presence of adequate nematode burdens by performing a standard fecal egg per gram (EPG) count. Eggs are differentiated into the following groups: trichostrongyle (strongyle), Strongyloides, Trichuris, or Nematodiris. Only sheep judged by the study parasitologist to have adequate nematode infections are retained as test subjects. The sheep are fed good quality hay (no concentrated rations) and water ad libitum. Following a five day acclimation period, the sheep are randomly assigned by EPG count into the following treatment groups: Groups 1-9, various anthelmintic compounds of the present invention (test compound) dissolved in DMSO: […] Group 11, non-treated Negative control (DMSO only). The first replicate of 1 I animals is randomly assigned to groups 1-1; the second replicate of 11 animals is randomly assigned to groups 1-11; and the third replicate of 11 animals is randomly assigned to groups 1-1. Thus 11 groups of 3 animals each are created. The placebo (DMSO), the commercially available drug, and the test anthelmintic compounds are administered in a 3 ml volume of DMSO by subcutaneous injection using a sterile syringe fitted with a sterile needle. The site of injection is clipped and swabbed with alcohol prior to injection. The animal is adequately immobilized for injection of the placebo, commercially available drug, or experimental compound. Seven days following treatment, all the sheep are weighed and humanely slaughtered in accordance with the Guide for the Care and Use of Laboratory Animals (DHEW Publication No. 86-23). Necropsy procedures are according to Zimmerman Research SOP # […].00.01, Necropsy for Helminth Recovery, specifically for gastrointestinal nematodes. Fecal samples are taken for EPG counts during the sample collection process on this day. Nematodes are recovered, identified, and enumerated according to Zimmerman Research SOP # […].00.01. All individuals performing nematode recoveries are blinded to treatment versus control animals.

Setting [3] is: Ivermectin 200 mcg/kg, controlled test procedure.

Several values for one entry are separate records, joined by “and”; a condition that tells them apart may be missing. Identical values can stand only once.

For the compound 22,23-dihydroavermectin B1 [ivermectin], in assay [1] (Ivermectin 200 mcg/kg), the “% Change, Strongyles EPG-5 day vs EPG-pre, Total/Mean” value was 100.00%; the “Strongyles EPG-5 day (22-May), Total/Mean” value came out at 0.00 EPG; the “% Change, Strongyles EPG-7 day vs EPG-pre, Total/Mean” value came out at 100.00%; the “Strongyles EPG-7 day (24-May), Total/Mean” value is reported as 0.00 EPG. For the same compound, in assay [1] (Ivermectin 200 mcg/kg), the “Strongyles EPG-5 day (22-May)” value worked out at 0 EPG; the “% Change, Strongyles EPG-7 day vs EPG-pre” value was found to be 100.00%; the “Strongyles EPG-7 day (24-May)” value came to 0 EPG. Also, in assay [2] (setting [3]), the “% Efficacy, Abomasum Haemonchus” value came to 86%; the “% Efficacy, Abomasum ostertagia” value was found to be 100%; the “% Efficacy, Small Intest. Nematodirus” value amounted to 98%; the “% Efficacy, Small Intestine Trichostrongylus” value is given as 100%. In assay [2] (Ivermectin 200 mcg/kg), the “Mean Ct., Abomasum Haemonchus” value is given as 7; the “Mean Ct., Abomasum Ostertagia” value is reported as 0; the “Mean Ct., Large Intest. Trichuris” value was found to be 0; the “Mean Ct., Small Intest. Nematodirus” value came out at 67. Also, in assay [2] (Ivermectin 200 mcg/kg), the “Mean Ct., Small Intestine Trichostrongylus” value was found to be 0; the “Worm Counts, Abomasum Haemonchus” value is 0 (2×) and 20; the “Worm Counts, Abomasum ostertagia” value was 0; the “Worm Counts, Large Intest. Trichuris” value was 0. Also, in assay [2] (Ivermectin 200 mcg/kg), the “Worm Counts, Small Intest. Nematodirus” value was 100 (2×) and 0; the “Worm Counts, Small Intestine Trichostrongylus” value turned out to be 0.

Turning to `CCC1CCCCN1c1cc(Oc2ccc3oc4ccccc4c3c2)ncn1` (stereo not drawn) [AKC 109], in assay [1] (AKC 109 .8 mg/kg), the “% Change, Strongyles EPG-5 day vs EPG-pre, Total/Mean” value came out at 51.49%; the “Strongyles EPG-5 day (22-May), Total/Mean” value amounted to 245.00 EPG; the “% Change, Strongyles EPG-7 day vs EPG-pre, Total/Mean” value was 50.50%; the “Strongyles EPG-7 day (24-May), Total/Mean” value worked out at 250.00 EPG. In assay [1] (AKC 109 .8 mg/kg), the “Strongyles EPG-5 day (22-May)” value was 360 EPG and 130 EPG; the “% Change, Strongyles EPG-7 day vs EPG-pre” value was 63.93% and 30.00%; the “Strongyles EPG-7 day (24-May)” value is 220 EPG and 280 EPG. For the same compound, the “% Efficacy, Abomasum Haemonchus” value in assay [2] (AKC 109 .8 mg/kg, controlled test procedure) is 100%. In assay [2] (AKC 109 .8 mg/kg), the “Mean Ct., Abomasum Haemonchus” value is recorded as 0; the “Mean Ct., Abomasum Ostertagia” value turned out to be 690; the “Mean Ct., Large Intest. Trichuris” value came out at 3; the “Mean Ct., Small Intest. Nematodirus” value was 7120. In assay [2] (AKC 109 .8 mg/kg), the “Mean Ct., Small Intestine Trichostrongylus” value is listed as 130; the “Worm Counts, Abomasum Haemonchus” value worked out at 0; the “Worm Counts, Abomasum ostertagia” value is 1100 and 280; the “Worm Counts, Large Intest. Trichuris” value is 5 and 0. Moreover, in assay [2] (AKC 109 .8 mg/kg), the “Worm Counts, Small Intest. Nematodirus” value was 12020 and 2220; the “Worm Counts, Small Intestine Trichostrongylus” value was 240 and 20.
